Experimental data reported in US8697653B2, “Microparticle formulation for pulmonary drug delivery of anti infective molecule for treatment of infectious diseases” (priority 2010, dated 2014).
Values belong to the compound of their own block, whether it stands above or below them.

Key:
[1] = Antimicrob. Agents Chemother., 1999, 37, 281-286; cited from earlier work
[2] = Dose scheduling, nose-only exposure lung deposition (Example 23); format: in vivo, Guinea pigs; conditions: 3 mg/kg, regimen not stated
Experimental: To evaluate dose scheduling of the formulation of Example 9 Method A The assay was done as reported in The AAPS Journal, 2005, 7 (1), E20-E41.
(§1) A nose-only exposure in vivo lung deposition study was carried out as per the reference mentioned. Guinea pigs were divided in three groups. Group 1 received unformulated compound of formula I (3 mg/kg); group 2 received formulation of Example 9 Method A (3 mg/kg) once a day for one day and group 3 received formulation of Example 9 Method A (3 mg/kg) twice a day for one day. The unformulated compound of formula I and formulation of Example 9 Method A were aerosolized and the nose-only exposure was carried out using jet nebulizer. The animals were sacrificed and the lungs were collected and analyzed to quantitate the amount of compound of formula I (ng/g) deposited in the lung by LC-MS. LC-MS conditions are as provided in Tables 15, 16 and 17 of Example 21.

[3] = Pulmonary bioavailability, nose-only exposure lung deposition (Example 21); format: in vivo, Guinea pigs; conditions: 3 mg/kg
Experimental: (§2) The assay was done as reported in The AAPS Journal, 2005, 7 (1), E20-E41.
A nose-only exposure in vivo lung deposition study was carried out as per the reference mentioned. Guinea pigs were divided in two groups. Group 1 received unformulated compound of formula I (3 mg/kg) and group 2 received formulation of Example 9 Method A (3 mg/kg). The unformulated compound of formula I and formulation of Example 9 Method A were aerosolized and the nose-only exposure was carried out using jet nebulizer wherein the nebulization period was one hour. Following aerosol administration, the animals were sacrificed at 1 hour, 2 hours, 6 hours, 12 hours and 24 hours post aerosol exposure and the lungs were collected and analyzed to quantitate the amount of compound of formula I (ng/g) deposited in the lung by LC-MS.

[4] = system: MRC5, L929 and A549 cell lines; assay: In vitro cytocompatibility assay, all cell lines evaluated; format: cell-based; conditions: all the different cell lines evaluated
Experimental: The assay was carried out based on the reference Journal of Biomedical Materials Research, 2009, […], 281-292. This assay was performed to evaluate the cytocompatibility of the formulation of Example 9 Method A with the relevant cell lines and standard cells which are specified by the regulatory agencies. Cell density: 10,000/well for MRC 5 and […], and 3000/well for A549 Time points: 24 hours and 48 hours. The toxicological evaluation was done using The CellTiter 96 Aqueous One Solution Assay by Promega (Cat. no: G3582). The assay is a standard colorimetric method for determining the number of viable cells in proliferation or cytotoxicity assays. The MTS used in the assay is bioreduced by cells into a colored formazan product that is soluble in tissue culture medium. The quantity of formazan product as measured by the amount of 490 nm absorbance is directly proportional to the number of living cells in culture. […] The ELISA 96-well plate was then subjected to absorbance recordings at 490 nm (450-540 nm) with a 96-well plate reader. The average 490 nm absorbance from the “no-cell” control was subtracted from all other absorbance values and the corrected absorbance was utilized for further calculations. (Background absorbance from “no-cell” control is typically 0.2 to 0.3 absorbance units after 4 hours of incubation).

[5] = Estimation of solubility in simulated lung fluid (SLF, pH 7.4) by HPLC; format: physicochemical; conditions: fassgf or other biorelevant, thermodynamic from solid
Experimental: SLF was prepared by method based on Respiratory Physiology & Neurobiology, 2008, 162, 73-79. 9 g of sodium chloride, 0.220 g of calcium chloride and 6.5 g of lactose were dissolved in 1000 mL of water. The pH of the resultant solution was adjusted to 7.4. Solubility of compound of formula I in SLF was measured at two temperatures, 45° C. and 60° C. For this, 1 mg of compound of formula I was added to 3 mL of SLF (in duplicates) and after vortexing for few seconds was incubated in water bath set at the required temperatures. Solubility was measured at one hour intervals for three hours. The solution was filtered through 0.22 μm filter and the filtrate was injected on HPLC. Solubility was calculated with respect to appropriate calibration curve.

[6] = Cumulative accumulation after once a day dosing for 5 days (Example 22); design: species or system Guinea pigs; conditions: guinea pig, in vivo; lung, 3 mg/kg, 1 hour nebulization everyday for five consecutive days, sacrificed on 6th day; read-out: Compound of formula I deposited
Experimental: Evaluation of cumulative accumulation of formulation of Example 9 Method A after once a day dosing for 5 days for nebulization exposure period of 1 hour/day The assay was done as reported in The AAPS Journal, 2005, 7 (1), E20-E41.
as §1, with “in two” for “in three”, “(3 mg/kg) and” for “(3 mg/kg);”, “(3 mg/kg).” for “(3 mg/kg) once a day for one day and group 3 received formulation of Example 9 Method A (3 mg/kg) twice a day for one day.”, “jet nebulizer wherein the nebulization period was one hour everyday for five consecutive days and the” for “jet nebulizer. The”, “sacrificed on 6th day. The” for “sacrificed and the”

[7] = Physical properties: solubility in solvents and water; format: physicochemical; conditions: chloroform, ethyl acetate, methanol, water
Experimental: • Column: Eurospher RP-18, (3μ, 4.6×125 mm) • Solvent system: Gradient (0% acetonitrile to 100% in 15 minutes against water, followed by 100% acetonitrile for 5 minutes) • Flow rate: 1 mL/minute • Detection (UV): 245 nm • Retention time: compound of formula I (12 to 13 minutes) Physical & Spectral properties of the compound of formula I: • Appearance: White powder • Melting point: 240° C.

rat alveolar macrophages = assay: In vitro macrophage uptake assay; format: cell-based
Experimental: The assay was carried out based on the reference Respiratory Research, 2009, 10, 44.
Bronchoalveolar lavage washings from the rats were taken after appropriate ethical permission. Sterile warmed saline was introduced into the lung and then removed by suction. Bronchoalveolar lavage fluid was transported on icepacks (usually 100 to 200 mL of bronchoalveolar lavage fluid per donor is desired). The fluid was subjected to centrifugation at 250 g for 10 minutes and the cells were collected. Pooled the cell pellets by resuspending the cells in a total of 10 mL of HBSS. 100 μL aliquot was removed and stained with Wright-Giemsa stain to do a differential cell count. The cell count was adjusted and plated the cells in macrophage culture medium (HAM F12 medium, Amimed, Switzerland). 0.5 mL of the cell suspension was added to each of the 6 well tissue culture plates with 0.5 mL of the macrophage culture medium. The cells were incubated for 24 hours at 37° C. and 5% CO2. Cell adherence and cell growth was evaluated and treated with the formulation of Example 9 Method A tagged with sulforhodamine dye. Post treatment the cells were evaluated for fluorescence. This fluorescence results for selective uptake of the formulation by the alveolar macrophages.

[8] = Pilot in vivo lung deposition study (Example 20); design: species or system Guinea pigs; conditions: guinea pig, lungs, 10 mg/kg aerosolized, passive breathing, read-out: compound of formula I deposited
Experimental: as §2
A pilot in vivo lung deposition study was carried out as per the reference mentioned. Guinea pigs were divided in three groups. Group 1 received formulation of Example 9 Method A, group 2 received unformulated compound of formula I and group 3 was untreated (naïve group). 10 mg/kg of the formulation was aerosolized and the animals were allowed to breathe passively. Following administration of the formulation of Example 9 Method A the animals were sacrificed at 30 minutes time point. The lungs were collected and analyzed by HPLC.

SMILES: CN[C@H](CC(C)C)C(=O)N[C@H]1C(=O)N[C@@H](CC(N)=O)C(=O)N[C@H]2C(=O)N[C@H]3C(=O)N[C@H](C(=O)N[C@H](C(=O)O)c4cc(O)cc(O)c4-c4cc3ccc4O)[C@H](O)c3ccc(c(Cl)c3)Oc3cc2cc(c3O[C@@H]2O[C@H](CO)[C@@H](O)[C@H](O)[C@H]2O[C@H]2C[C@](C)(N)[C@H](O)[C@H](C)O2)Oc2ccc(cc2Cl)[C@H]1O [Vancomycin]
Lung concentrations as % of the plasma concentrations [1]: 20%

Compound of formula I deposited [2]: 0 ng/g
Ability to reach the lungs on nebulization (in words) ([3]; nose-only nebulization): unable to reach the lungs
concentration at 1 h ([3]; guinea pig, in vivo, lung, nose-only, 1 hour nebulization, 1 hour post exposure, read-out: Compound of formula I deposited): 1 ng/g
concentration at 2 h ([3]; guinea pig, in vivo, lung, nose-only, 1 hour nebulization, 2 hours post exposure, read-out: Compound of formula I deposited): 1 ng/g
concentration at 6 h ([3]; guinea pig, in vivo, lung, nose-only, 1 hour nebulization, 6 hours post exposure, read-out: Compound of formula I deposited): 1 ng/g
concentration at 12 h ([3]; guinea pig, in vivo, lung, nose-only, 1 hour nebulization, 12 hours post exposure, read-out: Compound of formula I deposited): 1 ng/g
concentration at 24 h ([3]; guinea pig, in vivo, lung, nose-only, 1 hour nebulization, 24 hours post exposure, read-out: Compound of formula I deposited): 1 ng/g
solubility at 1 h ([5]; SLF pH 7.4, 45° C.): 1.3 µg/mL
solubility at 2 h ([5]; SLF pH 7.4, 45° C.): 0.9 µg/mL
solubility at 3 h ([5]; SLF pH 7.4, 45° C.): 1.2 µg/mL
solubility at 1 h ([5]; SLF pH 7.4, 60° C.): 0.6 µg/mL
solubility at 2 h ([5]; SLF pH 7.4, 60° C.): 0.7 µg/mL
solubility at 3 h ([5]; SLF pH 7.4, 60° C.): 1.3 µg/mL
concentration at 6 day [6]: 1 ng/g
Uptake by alveolar macrophages (in words) (rat alveolar macrophages): does not show active uptake
Compound concentration in alveolar macrophages (rat alveolar macrophages; 30 minutes): 2010 ng/mL
Compound concentration in alveolar macrophages (rat alveolar macrophages; 60 minutes): 2010 ng/mL
Compound concentration in alveolar macrophages (rat alveolar macrophages; 120 minutes): 1990 ng/mL
concentration at 30 min [8]: 0 ng/g
SMILES: C=C(NC(=O)C(=C)NC(=O)c1csc(C2=NC3c4csc(n4)C4NC(=O)c5csc(n5)C(C(C)(O)C(C)O)NC(=O)C5CSC(=N5)/C(=C\C)NC(=O)C(C(C)O)NC(=O)c5csc(n5)C3(CC2)NC(=O)C(C)NC(=O)C(=C)NC(=O)C(C)NC(=O)C(C(C)C)NC2C=Cc3c(C(C)O)cc(nc3C2O)C(=O)OC4C)n1)C(N)=O (stereo not shown) [Compound of formula I]
Cytotoxicity (in words) [4]: exhibited cytotoxicity
Solubility (in words) [7]: Soluble in chloroform, ethyl acetate, methanol and insoluble in water
